Data published in ChEMBL document CHEMBL1141053, “Synthesis and SAR of novel oxazolidinones: discovery of ranbezolid” (2005).
≈ marks a conversion by molar mass, not a printed value.

Key:
Type in all cases: functional
Enterococcus faecalis = experiment: In vitro minimum inhibitory concentration against Enterococcus faecalis ATCC 29212 after incubation in air at 35 degree C for 24 hr using agar dilution method; settings: ATCC 29212, 24 h
Staphylococcus aureus [1] = experiment: In vitro minimum inhibitory concentration against Staphylococcus aureus ATCC 25923 after incubation in air at 35 degree C for 24 hr using agar dilution method; settings: ATCC 25923, 24 h
Streptococcus pyogenes = experiment: In vitro minimum inhibitory concentration against Streptococcus pyogenes ATCC 19615 after incubation in air at 35 degree C for 24 hr using agar dilution method; settings: ATCC 19615, 24 h
Streptococcus pneumoniae = experiment: In vitro minimum inhibitory concentration against Streptococcus pneumoniae ATCC 6303 after incubation in air at 35 degree C for 24 hr using agar dilution method; settings: ATCC 6303, 24 h
Enterococcus faecium = experiment: In vitro minimum inhibitory concentration against vancomycin-resistant Enterococcus faecium 6A after incubation in air at 35 degree C for 24 hr using agar dilution method
Staphylococcus aureus [2] = experiment: In vitro minimum inhibitory concentration against methicillin-resistant Staphylococcus aureus 562 after incubation in air at 35 degree C for 24 hr using agar dilution method
Staphylococcus aureus [3] = experiment: In vivo effective dose (on day 7-post-infection) against methicillin-resistant Staphylococcus aureus 562 infected mice upon peroral administration at 30 min and 4 hr post-infection; settings: po
Escherichia coli [4] = experiment: Minimum inhibitory concentration against Tol C pump deficient Escherichia coli strain
Escherichia coli [5] = experiment: Minimum inhibitory concentration against […] AB pump deficient Escherichia coli strain
Escherichia coli [6] = experiment: Minimum inhibitory concentration against wild-type Escherichia coli strain

SMILES | MIC (Enterococcus faecalis) | MIC (Staphylococcus aureus [1]) | MIC (Streptococcus pyogenes) | MIC (Streptococcus pneumoniae) | MIC (Enterococcus faecium) | MIC (Staphylococcus aureus [2]) | ED50 (Staphylococcus aureus [3]) | MIC (Escherichia coli [4]) | MIC (Escherichia coli [5]) | MIC (Escherichia coli [6])
CC(=O)NC[C@H]1CN(c2ccc(N3CCN(Cc4ccoc4[N+](=O)[O-])CC3)c(F)c2)C(=O)O1 | 4 µg/mL (≈ 8.67 µM) | 8 µg/mL (≈ 17.3 µM) | 1 µg/mL (≈ 2.17 µM) | 1 µg/mL (≈ 2.17 µM) | 4 µg/mL (≈ 8.67 µM) | 4 µg/mL (≈ 8.67 µM) |  |  |  | 
CC(=O)NC[C@H]1CN(c2ccc(N3CCN(Cc4ccc([N+](=O)[O-])n4C)CC3)c(F)c2)C(=O)O1 | 4 µg/mL (≈ 8.43 µM) | 4 µg/mL (≈ 8.43 µM) | 2 µg/mL (≈ 4.22 µM) | 8 µg/mL (≈ 16.9 µM) | 4 µg/mL (≈ 8.43 µM) | 4 µg/mL (≈ 8.43 µM) |  |  |  | 
CC(=O)NC[C@H]1CN(c2ccc(N3CCN(Cc4ccc(COC(C)=O)o4)CC3)c(F)c2)C(=O)O1 | > 16 µg/mL | > 16 µg/mL | > 16 µg/mL | > 16 µg/mL | > 16 µg/mL | > 16 µg/mL |  |  |  | 
CC(=O)NC[C@H]1CN(c2ccc(N3C[C@@H]4[C@H](C3)[C@H]4N(C)c3ccc([N+](=O)[O-])o3)c(F)c2)C(=O)O1 | 1 µg/mL (≈ 2.11 µM) | 2 µg/mL (≈ 4.22 µM) | 0.06 µg/mL (≈ 0.127 µM) | 2 µg/mL (≈ 4.22 µM) | 2 µg/mL (≈ 4.22 µM) |  |  |  |  | 
CC(=O)NC[C@H]1CN(c2ccc(N3CCN(Cc4ccc(C)o4)CC3)c(F)c2)C(=O)O1 | > 16 µg/mL | > 16 µg/mL | > 16 µg/mL | > 16 µg/mL | > 16 µg/mL | > 16 µg/mL |  |  |  | 
CC(=O)NC[C@H]1CN(c2ccc(N3CCN(Cc4ccc(/C=N/N)o4)CC3)c(F)c2)C(=O)O1 | 8 µg/mL (≈ 17.4 µM) | 2 µg/mL (≈ 4.36 µM) | 8 µg/mL (≈ 17.4 µM) | 8 µg/mL (≈ 17.4 µM) | 8 µg/mL (≈ 17.4 µM) | 1 µg/mL (≈ 2.18 µM) |  |  |  | 
CC(=O)NC[C@H]1CN(c2ccc(N3CCN(Cc4ccc(Cl)o4)CC3)c(F)c2)C(=O)O1 | > 16 µg/mL | > 16 µg/mL | > 16 µg/mL | > 16 µg/mL | > 16 µg/mL | > 16 µg/mL |  |  |  | 
CC(=O)NC[C@H]1CN(c2ccc(N3CCN(Cc4ccc(C#N)o4)CC3)c(F)c2)C(=O)O1 | 16 µg/mL (≈ 36.2 µM) | 16 µg/mL (≈ 36.2 µM) | 16 µg/mL (≈ 36.2 µM) | 16 µg/mL (≈ 36.2 µM) | 16 µg/mL (≈ 36.2 µM) | 16 µg/mL (≈ 36.2 µM) |  |  |  | 
CC(=O)NC[C@H]1CN(c2ccc(N3CCN(Cc4ccco4)CC3)c(F)c2)C(=O)O1 | 8 µg/mL (≈ 19.2 µM) | 8 µg/mL (≈ 19.2 µM) | 4 µg/mL (≈ 9.6 µM) | 8 µg/mL (≈ 19.2 µM) | 8 µg/mL (≈ 19.2 µM) | 8 µg/mL (≈ 19.2 µM) | > 25 mg/kg |  |  | 
CC(=O)NC[C@H]1CN(c2ccc(N3CCN(Cc4ccc(C=O)o4)CC3)c(F)c2)C(=O)O1 | 8 µg/mL (≈ 18 µM) | 1 µg/mL (≈ 2.25 µM) | 8 µg/mL (≈ 18 µM) | 4 µg/mL (≈ 9 µM) | 8 µg/mL (≈ 18 µM) | 1 µg/mL (≈ 2.25 µM) | > 25 mg/kg |  |  | 
CC(=O)NC[C@H]1CN(c2ccc(N3CCN(Cc4ccc([N+](=O)[O-])o4)CC3C)c(F)c2)C(=O)O1 (stereo partly drawn) | 4 µg/mL (≈ 8.41 µM) | 4 µg/mL (≈ 8.41 µM) | 4 µg/mL (≈ 8.41 µM) | 8 µg/mL (≈ 16.8 µM) | 4 µg/mL (≈ 8.41 µM) | 2 µg/mL (≈ 4.21 µM) |  |  |  | 
CC(=O)NC[C@H]1CN(c2ccc(N3CCC(N(C)c4ccc([N+](=O)[O-])o4)CC3)c(F)c2)C(=O)O1 | 0.25 µg/mL (≈ 0.526 µM) | 1 µg/mL (≈ 2.1 µM) | 0.125 µg/mL (≈ 0.263 µM) | 0.5 µg/mL (≈ 1.05 µM) | 0.5 µg/mL (≈ 1.05 µM) | 0.5 µg/mL (≈ 1.05 µM) | 7.43 mg/kg |  |  | 
CC(=O)NC[C@H]1CN(c2ccc(N3CCC(Nc4ccc([N+](=O)[O-])o4)CC3)c(F)c2)C(=O)O1 | 0.5 µg/mL (≈ 1.08 µM) | 1 µg/mL (≈ 2.17 µM) | 0.25 µg/mL (≈ 0.542 µM) | 2 µg/mL (≈ 4.33 µM) | 0.5 µg/mL (≈ 1.08 µM) | 1 µg/mL (≈ 2.17 µM) |  |  |  | 
CC(=O)NC[C@H]1CN(c2ccc(N3CCN(Cc4ccc([N+](=O)[O-])[nH]4)CC3)c(F)c2)C(=O)O1 | 4 µg/mL (≈ 8.69 µM) | 4 µg/mL (≈ 8.69 µM) | 1 µg/mL (≈ 2.17 µM) | 4 µg/mL (≈ 8.69 µM) | 4 µg/mL (≈ 8.69 µM) | 4 µg/mL (≈ 8.69 µM) |  |  |  | 
CC(=O)NC[C@H]1CN(c2ccc(N3CCC(N(C)c4ccc([N+](=O)[O-])o4)C(C)C3)c(F)c2)C(=O)O1 (stereo partly drawn) | > 16 µg/mL | > 16 µg/mL | > 16 µg/mL | > 16 µg/mL | > 16 µg/mL | > 16 µg/mL |  |  |  | 
CC(=O)NC[C@H]1CN(c2ccc(N3CCN(Cc4ccc(/C=N/O)o4)CC3)c(F)c2)C(=O)O1 | 16 µg/mL (≈ 34.8 µM) | 2 µg/mL (≈ 4.35 µM) | 4 µg/mL (≈ 8.71 µM) | 8 µg/mL (≈ 17.4 µM) | 8 µg/mL (≈ 17.4 µM) | 2 µg/mL (≈ 4.35 µM) |  |  |  | 
CCOC(=O)c1ccc(CN2CCN(c3ccc(N4C[C@H](CNC(C)=O)OC4=O)cc3F)CC2)o1 | > 16 µg/mL | > 16 µg/mL | > 16 µg/mL | > 16 µg/mL | > 16 µg/mL | > 16 µg/mL |  |  |  | 
CC(=O)NC[C@H]1CN(c2ccc(N3CCC(N(C(C)=O)c4ccc([N+](=O)[O-])o4)CC3)c(F)c2)C(=O)O1 | > 16 µg/mL | > 16 µg/mL | > 16 µg/mL | > 16 µg/mL | > 16 µg/mL | > 16 µg/mL |  |  |  | 
CC(=O)NC[C@H]1CN(c2ccc(N3CCN(Cc4ccc(C(=O)O)o4)CC3)c(F)c2)C(=O)O1 | > 16 µg/mL | > 16 µg/mL | > 16 µg/mL | > 16 µg/mL | > 16 µg/mL | > 16 µg/mL |  |  |  | 
CC(=O)NC[C@H]1CN(c2ccc(N3CCN(Cc4ccc(CO)o4)CC3)c(F)c2)C(=O)O1 | > 16 µg/mL | > 16 µg/mL | > 16 µg/mL | > 16 µg/mL | > 16 µg/mL | > 16 µg/mL |  |  |  | 
CC(=O)NC[C@H]1CN(c2ccc(N3CCN(Cc4ccc([N+](=O)[O-])s4)CC3)c(F)c2)C(=O)O1 | 8 µg/mL (≈ 16.8 µM) | 8 µg/mL (≈ 16.8 µM) | 1 µg/mL (≈ 2.09 µM) | 8 µg/mL (≈ 16.8 µM) | 8 µg/mL (≈ 16.8 µM) | 8 µg/mL (≈ 16.8 µM) |  |  |  | 
CC(=O)NC[C@H]1CN(c2ccc(N3C[C@@H]4[C@@H](CN(C)c5ccc([N+](=O)[O-])o5)[C@@H]4C3)c(F)c2)C(=O)O1 | 4 µg/mL (≈ 8.21 µM) | 2 µg/mL (≈ 4.1 µM) | 0.125 µg/mL (≈ 0.256 µM) |  | 2 µg/mL (≈ 4.1 µM) | 1 µg/mL (≈ 2.05 µM) | > 25 mg/kg |  |  | 
CC(=O)NC[C@H]1CN(c2ccc(N3CCN(Cc4ccc(Br)o4)CC3)c(F)c2)C(=O)O1 | > 16 µg/mL | > 16 µg/mL | > 16 µg/mL | > 16 µg/mL | > 16 µg/mL | > 16 µg/mL |  |  |  | 
CC(=O)NC[C@H]1CN(c2ccc(N3C[C@@H](C)N(Cc4ccc([N+](=O)[O-])o4)[C@@H](C)C3)c(F)c2)C(=O)O1 | 8 µg/mL (≈ 16.3 µM) | 16 µg/mL (≈ 32.7 µM) | 16 µg/mL (≈ 32.7 µM) | 16 µg/mL (≈ 32.7 µM) | 8 µg/mL (≈ 16.3 µM) | 8 µg/mL (≈ 16.3 µM) |  |  |  | 
CC(=O)NC[C@H]1CN(c2ccc(N3CCCN(Cc4ccc([N+](=O)[O-])o4)CC3)c(F)c2)C(=O)O1.Cl | 2 µg/mL | 2 µg/mL | 1 µg/mL | 1 µg/mL | 2 µg/mL | 1 µg/mL | > 25 mg/kg |  |  | 
CC(=O)NC[C@H]1CN(c2ccc(N3CCOCC3)c(F)c2)C(=O)O1 [LINEZOLID] |  |  | 2 µg/mL (≈ 5.93 µM) |  | 2 µg/mL (≈ 5.93 µM) |  | 5.6 mg/kg |  |  | 
CC(=O)NC[C@H]1CN(c2ccc(N3CCN(Cc4ccc([N+](=O)[O-])o4)CC3)c(F)c2)C(=O)O1.Cl [RANBEZOLID CHLORIDE] | 2 µg/mL | 1 µg/mL | 0.125 µg/mL | 0.125 µg/mL | 2 µg/mL | 1 µg/mL |  | 2 µg/mL | 2 µg/mL | ≤ 16 µg/mL
CN[C@H](CC(C)C)C(=O)N[C@H]1C(=O)N[C@@H](CC(N)=O)C(=O)N[C@H]2C(=O)N[C@H]3C(=O)N[C@H](C(=O)N[C@H](C(=O)O)c4cc(O)cc(O)c4-c4cc3ccc4O)[C@H](O)c3ccc(c(Cl)c3)Oc3cc2cc(c3O[C@@H]2O[C@H](CO)[C@@H](O)[C@H](O)[C@H]2O[C@H]2C[C@](C)(N)[C@H](O)[C@H](C)O2)Oc2ccc(cc2Cl)[C@H]1O [VANCOMYCIN] | > 16 µg/mL |  |  | 0.5 µg/mL (≈ 0.345 µM) |  |  | 8.8 mg/kg |  |  | 
